{"source": "patent US20230074200A1", "about": "(priority 2021, published 2023)", "key": {"[1]": {"test_system": "rats lethally intoxicated with 2.5 LD50 BoNT/A", "conditions": "rat, in vivo"}, "[2]": {"test_system": "rats lethally challenged with 110 U/kg BoNT/A (2.5 LD50)", "conditions": "rat, in vivo"}, "BoNT/A-intoxicated mice": {"test_system": "BoNT/A-intoxicated mice", "conditions": "mouse, in vivo; cited from earlier work"}, "[3]": {"test_system": "diaphragm motor endplates of BoNT/A intoxicated rats", "conditions": "rat, in vivo"}, "[4]": {"conditions": "rat, in vivo; for behavioral seizure (%) / gait change (%) / max Racine score / mortality (%) / salivation (%): sc"}, "[5]": {"conditions": "rat, in vivo, sc, 2 mg/kg"}, "[6]": {"test_system": "isolated mouse diaphragms poisoned by multiple BoNT serotypes", "conditions": "cited from earlier work"}, "[7]": {"conditions": "rat, in vivo; for behavioral seizure (%) / gait change (%) / max Racine score / mortality (%) / salivation (%): sc", "remark": "listed apart in the source"}, "[8]": {"conditions": "rat, in vivo"}}, "note": "Where “and” joins values, the source holds several entries; their conditions need not be identical. Identical values can stand only once. Like-named read-outs stand apart in the source and are kept apart here."}
{"smiles": "Nc1ccncc1N", "note": "[3,4-DAP, 3,4-diaminopyridine]", "values": [{"measurement": "functional toxicity or loss of efficacy throughout the infusion period", "setting": "[1]", "value": "no evidence of functional toxicity or loss of efficacy"}, {"measurement": "symptomatic rebound following cessation of infusion", "setting": "[1]", "value": "without symptomatic rebound"}, {"measurement": "time by which all rats were deceased following cessation of infusion", "setting": "[1]", "value": "≤ 12", "unit": "h"}, {"measurement": "time by which toxic signs resolved", "setting": "[1]", "value": "≤ 14", "unit": "days"}, {"measurement": "time by which toxic signs stabilized", "setting": "[1]", "value": "≤ 2", "unit": "days"}, {"measurement": "time to worsening of toxic signs following cessation of infusion", "setting": "[1]", "value": "3 to 6", "unit": "h"}, {"measurement": "toxic signs compared to vehicle", "setting": "[1]", "value": "improved"}, {"measurement": "survival rate at the final injection", "setting": "[2]", "value": 100, "unit": "%"}, {"measurement": "time to reduction of toxic signs compared to vehicle", "setting": "[2]", "value": "≤ 30", "unit": "min"}, {"measurement": "time after cessation of treatment at which toxic signs worsened", "setting": "[2]; 2 mg/kg", "value": "approximately 1.5 h"}, {"measurement": "time of death after the final injection", "setting": "[2]; 2 mg/kg", "value": "2 to 4", "unit": "h"}, {"measurement": "respiratory and skeletal muscle weakness", "setting": "BoNT/A-intoxicated mice", "value": "reversed respiratory and skeletal muscle weakness"}, {"measurement": "respiratory function and survival", "setting": "BoNT/A-intoxicated mice", "value": "improve respiratory function and prolong survival"}, {"measurement": "mean EPP success rate", "setting": "[3]; 0.98 mg/kg", "value": "75.4±3.5", "unit": "%"}, {"measurement": "mean EPP success rate", "setting": "[3]; 1.44 mg/kg", "value": "60.5±5.3% and 79.7±2.5%"}, {"measurement": "behavioral signs of neurological toxicity during infusion", "setting": "[4]", "value": "not observed"}, {"measurement": "behavioral seizure (%)", "setting": "[4]; 0.36 mg/kg", "value": "0, 0%"}, {"measurement": "gait change (%)", "setting": "[4]; 0.36 mg/kg", "value": 0, "unit": "%"}, {"measurement": "max Racine score", "setting": "[4]; 0.36 mg/kg", "value": "0, 0"}, {"measurement": "mortality (%)", "setting": "[4]; 0.36 mg/kg", "value": 0, "unit": "%"}, {"measurement": "salivation (%)", "setting": "[4]; 0.36 mg/kg", "value": 0, "unit": "%"}, {"measurement": "behavioral seizure (%)", "setting": "[4]; 0.72 mg/kg", "value": "0, 0%"}, {"measurement": "gait change (%)", "setting": "[4]; 0.72 mg/kg", "value": 0, "unit": "%"}, {"measurement": "max Racine score", "setting": "[4]; 0.72 mg/kg", "value": "0, 0"}, {"measurement": "mortality (%)", "setting": "[4]; 0.72 mg/kg", "value": 0, "unit": "%"}, {"measurement": "salivation (%)", "setting": "[4]; 0.72 mg/kg", "value": 0, "unit": "%"}, {"measurement": "behavioral seizure (%)", "setting": "[4]; 1.44 mg/kg", "value": "0, 0%"}, {"measurement": "gait change (%)", "setting": "[4]; 1.44 mg/kg", "value": 0, "unit": "%"}, {"measurement": "max Racine score", "setting": "[4]; 1.44 mg/kg", "value": "0, 0"}, {"measurement": "mortality (%)", "setting": "[4]; 1.44 mg/kg", "value": 0, "unit": "%"}, {"measurement": "salivation (%)", "setting": "[4]; 1.44 mg/kg", "value": 0, "unit": "%"}, {"measurement": "VO2", "setting": "[5]", "value": "transient increases"}, {"measurement": "respiratory rate", "setting": "[5]", "value": "transient increases"}, {"measurement": "tidal volume", "setting": "[5]", "value": "transient increases"}, {"measurement": "muscle paralysis", "setting": "[6]", "value": "reverse muscle paralysis"}, {"measurement": "physiological indicators of acute neurological toxicity", "setting": "[7]; 2 mg/kg", "value": "did not elicit physiological indicators of acute neurological toxicity"}, {"measurement": "physiological indicators of acute neurological toxicity", "setting": "[7]; 8 mg/kg", "value": "did not elicit physiological indicators of acute neurological toxicity"}, {"measurement": "behavioral seizure (%)", "setting": "[7]; 1 mg/kg", "value": "0, 0%"}, {"measurement": "gait change (%)", "setting": "[7]; 1 mg/kg", "value": 0, "unit": "%"}, {"measurement": "max Racine score", "setting": "[7]; 1 mg/kg", "value": "0, 0"}, {"measurement": "mortality (%)", "setting": "[7]; 1 mg/kg", "value": 0, "unit": "%"}, {"measurement": "salivation (%)", "setting": "[7]; 1 mg/kg", "value": 0, "unit": "%"}, {"measurement": "behavioral seizure (%)", "setting": "[7]; 2 mg/kg", "value": "0, 0%"}, {"measurement": "gait change (%)", "setting": "[7]; 2 mg/kg", "value": 0, "unit": "%"}, {"measurement": "max Racine score", "setting": "[7]; 2 mg/kg", "value": "0, 0"}, {"measurement": "mortality (%)", "setting": "[7]; 2 mg/kg", "value": 0, "unit": "%"}, {"measurement": "salivation (%)", "setting": "[7]; 2 mg/kg", "value": 0, "unit": "%"}, {"measurement": "behavioral seizure (%)", "setting": "[7]; 8 mg/kg", "value": "0, 0%"}, {"measurement": "gait change (%)", "setting": "[7]; 8 mg/kg", "value": 0, "unit": "%"}, {"measurement": "max Racine score", "setting": "[7]; 8 mg/kg", "value": "0, 0"}, {"measurement": "mortality (%)", "setting": "[7]; 8 mg/kg", "value": 0, "unit": "%"}, {"measurement": "salivation (%)", "setting": "[7]; 8 mg/kg", "value": 0, "unit": "%"}, {"measurement": "behavioral seizure (%)", "setting": "[7]; 16 mg/kg", "value": "0, 0%"}, {"measurement": "gait change (%)", "setting": "[7]; 16 mg/kg", "value": 50, "unit": "%"}, {"measurement": "max Racine score", "setting": "[7]; 16 mg/kg", "value": "0, 0"}, {"measurement": "mortality (%)", "setting": "[7]; 16 mg/kg", "value": 0, "unit": "%"}, {"measurement": "salivation (%)", "setting": "[7]; 16 mg/kg", "value": 25, "unit": "%"}, {"measurement": "relationship between infusion dose rate and CSS (serum)", "setting": "[8]", "value": "linearly related to infusion dose"}]}
